Assay results as given in patent US20050032873A1, “3-Amino chroman and 2-amino tetralin derivatives” (Wyeth, priority 2003, published 2005).
Where a name gives a salt, the structure may show the parent alone.

Legend:
[1] = target: T1, cloned human 5-HT1A receptors (Homo sapiens, UniProt P08908); assay: 35S-GTPγS binding assay, 5-HT1A function; type: biochemical; conditions: for IC50: antagonist potency, reversal of 8-OH-DPAT, read-out: 5-HT1A Function GTPγS IC50; for Emax: maximum inhibitory effect, in brackets after IC50, read-out: 5-HT1A Function GTPγS (Imax); for EC50: agonist potency; for 5-HT1A Function GTPγS (Emax): maximum stimulatory effect, in brackets after EC50
T1 construct: expressed in transfected cells
T1 sequence (P08908 1-422): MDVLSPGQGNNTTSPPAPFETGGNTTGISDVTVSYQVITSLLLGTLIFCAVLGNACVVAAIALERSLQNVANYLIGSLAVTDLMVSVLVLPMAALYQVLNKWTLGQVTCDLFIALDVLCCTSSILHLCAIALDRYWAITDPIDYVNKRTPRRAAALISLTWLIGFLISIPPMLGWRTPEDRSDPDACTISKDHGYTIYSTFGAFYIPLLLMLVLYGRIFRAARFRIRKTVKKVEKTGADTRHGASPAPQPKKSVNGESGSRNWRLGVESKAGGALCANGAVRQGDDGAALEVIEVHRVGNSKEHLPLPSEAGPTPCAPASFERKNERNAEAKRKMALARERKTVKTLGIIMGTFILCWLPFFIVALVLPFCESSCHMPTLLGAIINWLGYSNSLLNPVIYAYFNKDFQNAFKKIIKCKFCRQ
From the text: (§1) The agonist or antagonist activity at 5-HT1A receptors was established by using two different assays. […] Agonists produce an increase in binding whereas antagonists produce no increase but rather reverse the effects of the standard agonist 8-OH-DPAT. The test compound's maximum stimulatory effect is represented as the Emax, while its potency is defined by the EC50. The test compound's maximum inhibitory effect is represented as the Imax, while its potency is defined by the IC50. The second assay measured cAMP accumulation upon binding of the ligand to the 5-HT1A receptor. […] The test compound's maximum stimulatory or inhibitory effect is represented as the Emax while its potency is defined by either IC50 for an antagonist or EC50 for an agonist. [^3H]-8-OH-DPAT was used to determine maximum agonist or antagonist response in both functional assays.

[2] = target: T2, 5-HT1A receptor (Homo sapiens, UniProt P08908); assay: 5-HT1A receptor affinity: displacement of [3H] 8-OH-DPAT; type: binding; design: expressed in transfected cells; conditions: displacement of [3H] 8-OH-DPAT; CHO cells stably transfected with human 5-HT1A receptors; read-out: 5-HT1A Receptor Affinity Ki
T2 sequence (P08908 1-422): T1 sequence (P08908 1-422)

[3] = target: T3, serotonin transporter (Rattus norvegicus, UniProt P31652); assay: 5-HT transporter affinity: displacement of 3H-paroxetine from male rat cortical membranes; type: binding; conditions: displacement of 3H-paroxetine; male rat cortical membranes; read-out: 5-HT Transporter Affinity Ki
T3 construct: displace ^3H-paroxetine from male rat cortical membranes; from tissue; host or cells: male rat cortical membranes
T3 sequence (P31652 whole entry): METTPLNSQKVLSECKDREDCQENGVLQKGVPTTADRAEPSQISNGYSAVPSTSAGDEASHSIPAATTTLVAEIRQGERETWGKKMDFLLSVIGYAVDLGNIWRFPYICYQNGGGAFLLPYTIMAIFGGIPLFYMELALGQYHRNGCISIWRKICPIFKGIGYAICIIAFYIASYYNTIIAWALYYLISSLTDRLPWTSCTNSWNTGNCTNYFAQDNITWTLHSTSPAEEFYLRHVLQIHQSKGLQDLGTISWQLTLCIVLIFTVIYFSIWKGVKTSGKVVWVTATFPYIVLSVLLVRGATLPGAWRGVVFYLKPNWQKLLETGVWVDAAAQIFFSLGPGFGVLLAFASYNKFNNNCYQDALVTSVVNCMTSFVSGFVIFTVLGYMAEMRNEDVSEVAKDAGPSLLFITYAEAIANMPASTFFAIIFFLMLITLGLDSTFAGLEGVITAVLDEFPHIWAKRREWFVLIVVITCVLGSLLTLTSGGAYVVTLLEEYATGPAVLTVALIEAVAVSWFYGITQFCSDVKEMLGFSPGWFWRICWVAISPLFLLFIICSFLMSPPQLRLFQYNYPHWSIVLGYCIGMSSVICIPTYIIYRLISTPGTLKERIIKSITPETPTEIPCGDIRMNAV

[4] = target: T2, 5-HT1A receptor; assay: cAMP accumulation assay, 5-HT1A function; type: cell-based; conditions: for Emax / 5-HT1A Function cAMP (Emax): in brackets after EC50 or IC50; for Emax: read-out: 5-HT1A Function cAMP (Emax); for EC50: cells marked EC50 (agonist)
From the text: as §1

| Compound | melting point | Ki [2] [nM] | Ki [3] [nM] | other results |
| --- | --- | --- | --- | --- |
| NC(=O)c1ccc(F)c2c1CC(NCCCc1c[nH]c3ccc(F)cc13)CO2 (stereo not shown) (as salt: hydrochloride) [Compound 1, 8-fluoro-3-{[3-(5-fluoro-1H-indol-3-yl)propyl]amino}chromane-5-carboxamide] | 122 °C (dec.) |  |  |  |
| CCCN(CCCc1c[nH]c2ccc(F)cc12)C1COc2c(F)ccc(C(N)=O)c2C1 (stereo not shown) (as salt: hydrochloride) [Compound 2, 8-fluoro-3-{[3-(5-fluoro-1H-indol-3-yl)propyl](propyl)amino}chromane-5-carboxamide] | 125 °C (dec.) |  |  |  |
| NC(=O)c1ccc(F)c2c1CC(N(CCCc1c[nH]c3ccc(F)cc13)CC1CC1)CO2 (stereo not shown) (as salt: hydrochloride) [Compound 5, 3-{(cyclopropylmethyl)[3-(5-fluoro-1H-indol-3-yl)propyl]amino}-8-fluorochromane-5-carboxamide] | 121 °C (dec.) |  |  |  |
| CC(C1CC1)N(CCCc1c[nH]c2ccc(F)cc12)C1COc2c(F)ccc(C(N)=O)c2C1 (stereo not shown) (as salt: hydrochloride) [Compound 6, 3-{(1-cyclopropylethyl)[3-(5-fluoro-1H-indol-3-yl)propyl]amino}-8-fluorochromane-5-carboxamide] | 124 °C (dec.) |  |  |  |
| NC(=O)c1ccc(F)c2c1CC(N(CCC(=O)c1c[nH]c3ccc(F)cc13)C1CCC1)CO2 (stereo not shown) (as salt: hydrochloride) [Compound 8, 3-{cyclobutyl[3-(5-fluoro-1H-indol-3-yl)-3-oxopropyl]amino}-8-fluorochromane-5-carboxamide] | 139 °C (dec.) |  |  |  |
| COC(=O)c1ccc(F)c2c1CC(NCCCc1c[nH]c3ccc(F)cc13)CO2 (stereo not shown) (as salt: hydrochloride) [Compound 10, Methyl 8-fluoro-3-{[3-(5-fluoro-1H-indol-3-yl)propyl]amino}chromane-5-carboxylate] | 219 °C (dec.) |  |  |  |
| COC(=O)c1ccc(F)c2c1CC(N(CCCc1c[nH]c3ccc(F)cc13)C1CCC1)CO2 (stereo not shown) (as salt: hydrochloride) [Compound 11, Methyl 3-{cyclobutyl[3-(5-fluoro-1H-indol-3-yl)propyl]amino}-8-fluorochromane-5-carboxylate] | 110 °C (dec.) |  |  |  |
| CCCN(CCC(O)c1csc2ccc(F)cc12)C1COc2c(F)ccc(C(N)=O)c2C1 (stereo not shown) (as salt: hydrochloride) [Compound 17, 8-fluoro-3-[[3-(5-fluoro-1-benzothien-3-yl)-3-hydroxypropyl](propyl)amino]chromane-5-carboxamide] | 117 °C (dec.) |  |  |  |
| CCCN(CCCc1csc2ccc(F)cc12)C1COc2cccc(OC)c2C1 (stereo not shown) (as salt: hydrochloride) [Compound 19, N-[3-(5-fluoro-1-benzothien-3-yl)propyl]-5-methoxy-N-propylchroman-3-amine] | 78 °C (dec.) |  |  |  |
| CCCN(CCCc1coc2ccccc12)C1COc2c(F)ccc(C(N)=O)c2C1 (stereo not shown) (as salt: hydrochloride) [Compound 20, 3-[[3-(1-benzofuran-3-yl)propyl](propyl)amino]-8-fluorochromane-5-carboxamide] | 114 to 118 °C (dec.) |  |  |  |
| CCN(CCCCc1coc2ccccc12)C1COc2cccc(OC)c2C1 (stereo not shown) (as salt: hydrochloride) [Compound 22, N-[4-(1-benzofuran-3-yl)butyl]-N-ethyl-N-(5-methoxy-3,4-dihydro-2H-chromen-3-yl)amine] | 152 to 154 °C |  |  |  |
| CCCN(CCCc1c[nH]c2ccc(F)cc12)C1COc2cccc(OC)c2C1 (stereo not shown) (as salt: hydrochloride) [Compound 23, [3-(5-fluoro-1H-indol-3-yl)propyl]-N-(5-methoxy-chroman-3-yl)propylamine] | 117 to 120 °C |  |  |  |
| CCN(CCCc1c[nH]c2ccc(F)cc12)C1COc2cccc(OC)c2C1 (stereo not shown) (as salt: hydrochloride) [Compound 31, N-ethyl-N-[3-(5-fluoro-1H-indol-3-yl)propyl]-5-methoxychroman-3-amine] | 91.2 °C (dec.) |  |  |  |
| COc1cccc2c1CC(N(CCCc1c[nH]c3ccc(F)cc13)C1CCC1)CO2 (stereo not shown) (as salt: hydrochloride) [Compound 34, N-cyclobutyl-N-[3-(5-fluoro-1H-indol-3-yl)propyl]-5-methoxychroman-3-amine] | 70.5 °C (dec.) |  |  |  |
| COc1cccc2c1C[C@@H](N(CCCc1c[nH]c3ccc(F)cc13)C1CCC1)CO2 (as salt: hydrochloride) [Compound 35, (3R)-N-cyclobutyl-N-[3-(5-fluoro-1H-indol-3-yl)propyl]-5-methoxy-3,4-dihydro-2H-chromen-3-amine] | 115 °C (dec.) |  |  |  |
| COc1cccc2c1CC(N(CCCCc1c[nH]c3ccc(F)cc13)C1CCC1)CO2 (stereo not shown) (as salt: hydrochloride) [Compound 36, N-cyclobutyl-N-[4-(5-fluoro-1H-indol-3-yl)butyl]-N-(5-methoxy-3,4-dihydro-2H-chromen-3-yl)amine] | 89 °C (dec.) |  |  |  |
| COc1cccc2c(CCCCN(C3CCC3)C3COc4c(F)ccc(C(N)=O)c4C3)coc12 (stereo not shown) [Compound 171, 3-{cyclobutyl[4-(7-methoxy-1-benzofuran-3-yl)butyl]amino}-8-fluorochromane-5-carboxamide] |  | 4.27 | 11200 | IC50 [1]: 404 nM; Emax [1]: 100%; IC50 ([4]; cells marked IC50 (antagonist), read-out: 5-HT1A Function cAMP IC50): 108 nM; Emax [4]: 0% |
| CCN(CCCCn1ccc2cccc(F)c21)C1COc2c(F)ccc(C(N)=O)c2C1 (stereo not shown) [Compound 189, 3-{Ethyl[4-(7-fluoro-1H-indol-1-yl)butyl]amino}-8-fluorochromane-5-carboxamide] |  | 37.4 | 27.1 | IC50 [1]: 233 nM; Emax [1]: 100%; EC50 [4]: 286 nM; Emax [4]: 77.5% |
| NC(=O)c1ccc(F)c2c1CC(N(CCCCn1ccc3ccc(F)cc31)CC1CC1)CO2 (stereo not shown) [Compound 195, 3-{(Cyclopropylmethyl)[4-(6-fluoro-1H-indol-1-yl)butyl]amino}-8-fluorochromane-5-carboxamide] |  | 3.25 | 12.5 | IC50 [1]: 371 nM; Emax [1]: 100%; EC50 [4]: 21.9 nM; Emax [4]: 58% |
| NC(=O)c1ccc(F)c2c1CC(N(CCCCn1ccc3c(F)cccc31)CC1CC1)CO2 (stereo not shown) [Compound 203, 3-{(Cyclopropylmethyl)[4-(4-fluoro-1H-indol-1-yl)butyl]amino}-8-fluorochromane-5-carboxamide] |  | 9.64 | 161 | IC50 [1]: 6060 nM; Emax [1]: 80%; EC50 [4]: 216 nM; Emax [4]: 72% |
| [3-(5-fluoro-1H-indol-3-yl)-propyl]-(8-fluoro-5-methoxychroman-3-yl)propylamine [Compound 26] |  | 19.4 | 12.5 | EC50 [1]: 210 nM; 5-HT1A Function GTPγS (Emax) [1]: 79.5%; EC50 [4]: 23.6 nM; 5-HT1A Function cAMP (Emax) [4]: 83.5% |
| [3-(5-fluoro-1H-indol-3-yl)-propyl]-((3R)-5-methoxychroman-3-yl)propylamine [Compound 24] |  | 8.87 | 9.75 | EC50 [1]: 48.3 nM; 5-HT1A Function GTPγS (Emax) [1]: 91.7%; EC50 [4]: 7.02 nM; 5-HT1A Function cAMP (Emax) [4]: 88.5% |
| [3-(5-fluoro-1H-indol-3-yl)-propyl]-((3S)-5-methoxychroman-3-yl)propylamine [Compound 25] |  | 24.3 | 16.5 | EC50 [1]: 155 nM; 5-HT1A Function GTPγS (Emax) [1]: 88%; EC50 [4]: 1.06 nM; 5-HT1A Function cAMP (Emax) [4]: 93.5% |
